# According to paper PMC7738880, “Identification of novel CD44v6-binding peptides that block CD44v6 and deliver a pro-apoptotic peptide to tumors to inhibit tumor growth and metastasis in mice” (Theranostics, 2021):
# Residues, ends and D or L forms follow the SMILES beside them.
# Key:
# [1] = molecular target: T1, recombinant human CD44v6-Fc protein (Homo sapiens, UniProt P16070); assay: SPR analysis of peptide binding affinity to CD44v6-Fc; settings: biotin-conjugated peptide on streptavidin chip, CD44v6-Fc 0.125-2 µM, steady-state 1:1 fit, pH 7.4
# T1 sequence (P16070 386-428 limits assumed): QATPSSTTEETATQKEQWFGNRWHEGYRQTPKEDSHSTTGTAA
# Description: (§1) The binding affinity (KD) of CD44v6-binding peptides to the CD44v6 protein was measured using an SPR instrument (Reichert Technologies, Depew, NY). A streptavidin chip was used as the immobilization substrate and exposed to biotin-labeled peptides (25 μΜ) at 5 μL/min for 50 min. The streptavidin only surface was used for the reference surface. All SPR signals were corrected by subtraction with the response of the reference surface. After washing, the chip was flowed with a solution of CD44v6-Fc or CD44-Fc protein (R&D Systems, Minneapolis, MN) in binding buffer (137 mM NaCl, 10 mM phosphate, 2.7 mM KCl pH 7.4, 62.5 µM BSA, and 0.005% Tween-20) at concentrations of 0.125, 0.25, 0.5, 1, and 2 μM at 10 μL/min for 3 min. Five concentrations (0.125, 0.25, 0.5, 1, and 2 µM) of CD44v6-Fc and CD44-Fc were used in a single-cycle dynamic SPR measurements. Resonance units were recorded and analyzed using Scrubber 2.0 software (BioLogic Software, Campbell, Australia). KD values were calculated by analyzing the steady-state binding data by fitting the curve of binding level against concentration with a 1:1 binding model (GraphPad Prism 7.0 software).
# [2] = molecular target: T2, recombinant human CD44-Fc protein (Homo sapiens, UniProt P16070); assay: SPR analysis of peptide binding to CD44-Fc; settings: biotin-conjugated peptide on streptavidin chip, CD44-Fc 0.125-2 µM
# T2 construct: Fc; purchased R&D Systems
# T2 sequence (P16070 21-361 isoform P16070-12 limits assumed): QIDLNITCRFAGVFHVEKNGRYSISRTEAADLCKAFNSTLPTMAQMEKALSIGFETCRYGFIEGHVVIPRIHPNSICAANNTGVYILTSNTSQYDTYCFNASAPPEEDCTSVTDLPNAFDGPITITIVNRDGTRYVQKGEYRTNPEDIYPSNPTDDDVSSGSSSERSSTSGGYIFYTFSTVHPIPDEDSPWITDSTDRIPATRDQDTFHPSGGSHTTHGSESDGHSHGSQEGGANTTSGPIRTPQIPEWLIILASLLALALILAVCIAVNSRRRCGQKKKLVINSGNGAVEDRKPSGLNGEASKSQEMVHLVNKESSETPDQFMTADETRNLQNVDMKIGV
# Description: as §1
# MDA-MB231 cells = assay: Saturation cell binding assay, MDA-MB231; parameters: species or system human; settings: biotin-labeled peptide 0-256 µM, 4 °C, 1 h
# Description: (§2) Supplementary Information
# (§3) Supplementary Materials and Methods
# (§4) Saturation binding assays to determine the cellular binding affinities of peptides Cells (5 × 10^3 cells per well in a 96-well plate) were incubated with 1% bovine serum albumin (BSA) for 30 min and with different concentrations of biotin-labeled peptides (0, 2, 4, 8, 16, 32, 64, 128, and 256 µM) at 4 °C for 1 h. After washing, the cells were incubated with horseradish peroxidase-conjugated neutravidin (1:10,000 dilution; ThermoFisher Scientific, Waltham, MA) for 30 min at room temperature. Enzymatic activity was detected using a 3,3ʹ,5,5ʹ-tetramethylbenzidine substrate (ThermoFisher Scientific), and the reaction was stopped using 2 M sulfuric acid. The absorbance at 450 nm was measured in each well using a microplate reader (Tecan, Mannedorf, Switzerland). The KD values were then calculated using GraphPad Prism 6 software (GraphPad Inc., La Jolla, CA). […]
# (§5) 10 µM biotin-labeled CD44v6-binding peptides at 4 °C for 1 h. […]
# (§6) Scientific) for 30 min at room temperature. […]
# 4T1 cells = assay: Saturation cell binding assay, 4T1; parameters: species or system mouse; settings: biotin-labeled peptide 0-256 µM, 4 °C, 1 h
# Description: as §2, §3, §4, §5, §6
# MCF7 cells = assay: Saturation cell binding assay, MCF7; parameters: species or system human; settings: biotin-labeled peptide 0-256 µM, 4 °C, 1 h, CD44v6-low cells
# Description: as §2, §3, §4, §5, §6
# [3] = molecular target: T1, recombinant human CD44v6-Fc protein; assay: ELISA of peptide binding to recombinant proteins; settings: 10 µM biotin-labeled peptide, 4 °C, 1 h
# Description: as §2
# Supplementary Materials and Methods […]
# peroxidase-conjugated neutravidin (1:10,000 dilution; ThermoFisher Scientific, Waltham, MA) for 30 min at room temperature. Enzymatic activity was detected using a 3,3ʹ,5,5ʹ-tetramethylbenzidine substrate (ThermoFisher Scientific), and the reaction was stopped using 2 M […]
# sulfuric acid. […]
# Enzyme-linked immunosorbent assay (ELISA) of peptide binding to recombinant proteins ELISA plates were coated overnight with 100 μL of recombinant human CD44v6-Fc and CD44-Fc proteins (R&D Systems, Minneapolis, MN) at a concentration of 1 μg/mL in Tris-buffered saline with 0.05% Tween-20. BSA was used as a control. After coating, plates were incubated with 10 µM biotin-labeled CD44v6-binding peptides at 4 °C for 1 h. After washing, the cells were incubated with horseradish peroxidase-conjugated neutravidin (1:10,000 dilution; ThermoFisher Scientific) for 30 min at room temperature. Detection of enzymatic activity and measurement of absorbance was performed as described above. Relative binding was calculated based on the absorbance, in which the absorbance of BSA was set to 1.
# [4] = molecular target: T3, CD44v6 on MDA-MB231 cells (Homo sapiens, UniProt P16070); assay: Flow cytometric competition assays with anti-CD44v6 antibody; assay type: cell-based; settings: for peptide binding to cells after pre-treatment with anti-CD44v6 antibody: MDA-MB231, antibody 5 µg/mL 1 h, FITC-labeled peptide 10 µM; for staining of CD44v6 with anti-CD44v6 antibody after pre-treatment with peptide: MDA-MB231, peptide 50 µM 1 h
# T3 sequence (P16070 386-428 limits assumed): T1 sequence (P16070 386-428 limits assumed)
# Description: Cells (1 × 10^5 cells) were harvested and suspended in culture medium containing 1% BSA for 1 h, followed by an incubation with FITC-labeled peptides (25 µM) at 4 °C for 1 h. After washing, the cells were analyzed using a FACSCalibur flow cytometer (BD, Franklin Lakes, NJ). For competition assays, cells were incubated with 5 µg/mL of an anti-human CD44v6 mouse monoclonal antibody (clone no. VFF-18, 1:100 dilution; Abcam, Cambridge, MA) and anti-human CD44 monoclonal antibody (clone no. 156-3C11, 1:100 dilution; ThermoFisher Scientific) for 1 h to compete with peptide binding, followed by an incubation with FITC-labeled peptides (10 µM) before analysis on a flow cytometer (BD). In another set of assays, cells were incubated with peptides (50 µM) for 1 h to compete with antibody binding, followed by an incubation with 5 µg/mL of the anti-human CD44v6 mouse monoclonal antibody for 1 h, The cells were then incubated with an Alexa Fluor 488-labeled goat anti-mouse IgG secondary antibody (Merck) before analysis on a flow cytometer (BD).
# [5] = tested on: c-Met and Erk phosphorylation in MDA-MB231 cells; assay: Western blotting of HGF-induced c-Met and Erk phosphorylation, MDA-MB231; assay type: cell-based, human; settings: peptide 20 µM 10 min, HGF 25 ng/mL 10 min
# Description: To examine c-Met and Erk phosphorylation, MDA-MB231 cells were serum-starved for 24 h, pre-treated with CD44v6-binding peptides (20 µM) for 10 min, and incubated with 25 ng/mL HGF for 10 min. After the incubation, the cell lysates were subjected to Western blotting analyses using an anti-phospho-Met rabbit monoclonal antibody (clone no. D26; Cell Signaling Technology), anti-Met mouse monoclonal antibody (clone no. 25H2, 1:1000 dilution; Cell Signaling Technology), anti-phospho-Erk1/2 rabbit monoclonal antibody (clone no. 197G2; Cell Signaling Technology), and anti-ERK1 rabbit polyclonal antibody (1:1000 dilution; Santa Cruz Biotechnology). The labeled bands on immunoblots were detected using enhanced chemiluminescence reagents (ThermoFisher Scientific).
SMILES,Kd [1] [µM],binding to the CD44 protein [2],Kd (MDA-MB231 cells) [µM],Kd (4T1 cells) [µM],Kd (MCF7 cells) [µM],binding to recombinant CD44v6-Fc protein coated on plates compared with CD44-Fc and albumin [3],peptide binding to cells after pre-treatment with anti-CD44v6 antibody [4],staining of CD44v6 with anti-CD44v6 antibody after pre-treatment with peptide [4],"HGF-induced phosphorylation of c-Met and Erk, MDA-MB231 [5]"
CC[C@H](C)[C@H](NC(=O)[C@@H](NC(=O)[C@H](CC(N)=O)NC(=O)[C@H](CC(C)C)NC(=O)[C@H](CC(N)=O)NC(=O)[C@@H](N)CS)[C@@H](C)O)C(=O)N[C@@H](CC(=O)O)C(=O)N[C@H](C(=O)N[C@@H](CS)C(=O)O)[C@@H](C)O [NLN] (H-CNLNTIDTC-OH; N-terminus and C-terminus assumed),0.253 ± 0.079,did not bind,12 ± 5,17 ± 7,300 ± 250,preferentially bound,significantly inhibited,inhibited,inhibited
CC(C)C[C@H](NC(=O)[C@H](CCC(N)=O)NC(=O)[C@H](Cc1c[nH]c2ccccc12)NC(=O)[C@H](CCC(=O)O)NC(=O)[C@H](CC(N)=O)NC(=O)[C@@H](N)CS)C(=O)N[C@@H](CCCCN)C(=O)N[C@@H](CO)C(=O)N[C@@H](CS)C(=O)O [NEW] (H-CNEWQLKSC-OH; N-terminus and C-terminus assumed),0.085 ± 0.018,did not bind,18 ± 6,29 ± 16,122 ± 115,preferentially bound,significantly inhibited,inhibited,inhibited
